Results taken from patent US12023348B2, “EGR1 targeting molecules for the treatment of inflammatory and hyperproliferative conditions” (The Medical Research, Infrastructure and Health Services …, priority 2015, dated 2024).
Structures can show the parent of a compound that is named as a salt.

How the values were obtained:
Assay type in all cases: cell-based, human
SAMD9 promoter [1] = assay: Dual luciferase reporter assay in HeLa cells transiently transfected with SAMD9 promoter construct; details: transient transfection, IFN-γ 10 ng/ml, 48 hours after transfection (FIG. 1A)
Source text: SAMD9 promoter fragments cloned into pGL3 as previously described [Hershkovitz, D. et al. (2011) J Invest Dermatol 131: 662-9], were digested with KpnI and XhoI and subcloned into pGL4.17 [luc2/Neo] (Promega). The expression vector pGL4.17 encodes the luciferase reporter gene luc2 (Photinuspyralis) and contains a mammalian selectable marker for neomycin resistance. For transient transfection, SAMD9 promoter-luciferase constructs were transfected into HeLa cells using lipofectamine 2000 (Invitrogen, Carlsbad, CA) according to the manufacturer's instructions.
Cellular protein was extracted by adding 20 μl of Promega Lysis Buffer (PLB) (Promega) to each sample and incubated for a period of 15 minutes. Cell lysate was analyzed in a 96-well flat white plate (Greiner Bio-One, United Kingdom) where 100 μl of Luciferase Assay Reagent II (LAR II) (Promega) was added to each sample. Luminescence was ascertained using the Infinite M200 multimode microplate reader (Tecan Ltd, Minnedorf, Switzerland). After the initial reading, 100 μl of Stop & GloR Reagent (Promega) were dispensed into tested wells and Renilla luciferase levels were tested. The assay was completed after Luciferase levels were normalized to Renilla levels.
SAMD9 promoter activity was first analyzed using a luciferase reporter assay in HeLa cells. […]

SAMD9 promoter [2] = assay: High-throughput luciferase reporter screen in HeLa line stably expressing 585 bp SAMD9 promoter fragment; details: IFN-γ 10 ng/ml for 24 hours (FIG. 1B)
SAMD9 = SAMD9 RNA expression by qRT-PCR in HeLa cells; details: fold increase in RNA gene expression vs cells treated with vehicle only
Method: HeLa cells were cultured in DMEM 4.5 g/l glucose medium containing 10% FCS, 1% L-glutamine and 1% penicillin and streptomycin (Biological Industries) and grown at 37° C. and 5% CO2.
Of note, when cells were incubated with CaCx and ApDx (NCI, MA USA), they were grown in the appropriate medium with 0.1% FCS only.
RNA was extracted from cell cultures using an RNA extraction kit (Roche Diagnostics, Mahheim, Germany). cDNA was synthesized from 500 ng of total RNA using the Verso cDNA kit (Thermo Fisher Scientific, Waltham, MA, USA). cDNA PCR amplification was carried out using the Fast SYBR Green Master Mix in a StepOnePlus™ Real-Time PCR System (Applied Biosystems, Foster City, CA, USA) with gene-specific intron-crossing oligonucleotide pairs listed in Table 1 (below). For quantification, standard curves were obtained using serially diluted cDNA amplified in the same qRT-PCR run. The melting temperature (Tm) of the amplified products was measured to confirm the specificity of the reaction conditions. Cycling conditions were as follows: 95° C. for 10 minutes, 95° C. for 10 seconds, 62° C. for 15 seconds, and 72° C. for 25 seconds for a total of 40 cycles. Each sample was analyzed in triplicate. mRNA expression level for target gene was normalized to GAPDH. The results are based the amount of target, normalized to an endogenous reference (IACTB) and relative to a calibrator, as calculated by 2-ΔΔCT. All samples were run in triplicate. The expression levels of target genes were expressed as mRNA relative units.
The potential ability of these 31 molecules to induce SAMD9 expression in cell cultures was then scrutinized.

SAMD9 promoter [3] = assay: High-throughput luciferase reporter screen in HeLa line stably expressing 585 bp SAMD9 promoter fragment; details: Homo sapiens, HeLa; fold increase in promoter activity by luciferase assay vs cells treated with vehicle only; test drugs 10 μM, 24 hours; read-out: SAMD9 expression fold change in HeLa reporter assay
Method: HeLa cell lines stably expressing the constructs were generated under neomycin selection. Briefly, pGL4.17 containing a SAMD9 promoter fragment spanning 585 bp upstream to the TSS and an empty pGL4.17 vector were transfected into HeLa cells. Forty eight hours after transfection, standard medium was replaced with medium containing 600 μg/ml G418 (Sigma-Aldrich), cells were kept under G418 selection and the selective medium was replaced approximately every 2-3 days. After two passages, colonies of stable cells were isolated, expanded and frozen for further use.
Test drugs were dispensed at a concentration of 10 μM by a robotic system into 96-well plates containing 9000 cells/well expressing the pGL4.17 reporter construct carrying a 585 bp SAMD9 promoter fragment operably linked to luciferase gene or the empty pGL4.17 luciferase construct (Promega cat. no. E6721). Medium was removed after 24 hours and the cells subjected to Steady-Glo luciferase lysis-substrate solution assay (Promega) as described above. Liquid handling was done with the Tecan (Tecan) Freedom 150 (Robotic & MCA liquid Handling System) and the luciferase reading was done with a robot integrated Tecan Infinite® M1000 reader.
This cell line was then used to robotically screen a total of 1496 compounds obtained from the National Cancer Institute Diversity Set III and Oncology Drugs Set III small molecule libraries.

Molecule	SAMD9 promoter activity (luciferase) (SAMD9 promoter [1])	Response of stable SAMD9 promoter-luciferase HeLa cell line (SAMD9 promoter [2])	SAMD9 expression fold change in HeLa cells (SAMD9) [fold]	fold induction at 10 µM (SAMD9 promoter [3])
IFN-γ: interferon-gamma, previously identified as a strong inducer of SAMD9 expression	significantly induced	respond robustly	–	–
COc1ccc(/C(=N\O)C(c2ccc(OC)cc2)C2C(=O)Oc3ccccc32)cc1 (stereo not shown) [Compound 641607, 3-(2-(Hydroxyimino)-1,2-bis(4-methoxyphenyl)ethyl)-1-benzofuran-2(3H)-one]	–	–	1.27	3.25
OC(CN1CCCCC1)c1ccc(/C=C/c2ccc(Cl)cc2)cc1 (stereo not shown) [Compound 26040]	–	–	1.2	3.38
COc1cccc2c1C(=O)c1c(O)c3c(c(O)c1C2=O)C[C@@](O)(C(C)=O)C[C@@H]3O[C@H]1C[C@H](N(Cc2ccccc2)Cc2ccccc2)[C@H](O)[C@H](C)O1 [Compound 268242, N,N-Dibenzyldaunorubicin hydrochloride]	–	–	3.66	4.84
CN(C)c1ccc(/C=C2\Cc3ccccc3C2=O)cc1Br [Compound 643163, 2-(3-Bromo-4-dimethylaminobenzylidene)-1-indanone]	–	–	0.79	2.64
CN(C)c1ccc2c(SCC(=O)OCC(=O)[C@@]3(O)CC[C@H]4[C@@H]5CCC6=CC(=O)C=C[C@]6(C)[C@H]5C(=O)C[C@@]43C)c3ccc(N(C)C)cc3nc2c1 [Compound 337851, Predorine]	–	–	1.23	2.37
CN(C)C(=S)/N=c1\ss/c(=N\C(=S)N(C)C)n1-c1ccc2c(c1)OCO2 [Compound 622589, 3,3′-[4-(1,3-benzodioxol-5-yl)-1,2,4-dithiazolidine-3,5-diylidene]bis[1,1-dimethyl(thiourea)]]	–	–	1.17	4.32
S=C(Nc1nnc(-c2ccccc2)c(-c2ccccc2)n1)N(/N=C/C=C/c1ccccc1)c1ccccc1 [Compound 640637, 3-Phenylacrylaldehyde N′-(5,6-diphenyl-1,2,4-triazin-3-yl)-N-phenylthiosemicarbazone]	–	–	1.16	2.32
COc1c2c(cc3oc(=O)ccc13)OC(C)(C)C=C2 [Compound 35542, Xanthoxylin N]	–	–	4.71	4.08
COc1ccc(-c2csc(=[N+]3CCCCC3)s2)cc1 [Compound 302358, Piperidinium, 1-[4-(4-methoxyphenyl)-1,3-dithiol-2-ylidene]-, sulfate (1:1)]	–	–	0.84	2.72
O=C(c1nc2ccc(Cl)cc2nc1O)C(O)c1ccc2c(c1)OCO2 (stereo not shown) [Compound 642649, 2-(1,3-Benzodioxol-5-yl)-1-(6-chloro-3-hydroxy-2-quinoxalinyl)-2-hydroxyethanone]	–	–	0.85	2.8
NC(Cc1ccc2oc3cc(=O)c4ccccc4c-3nc2c1)C(=O)O [Compound 672425, 1,2-Benzo-8-(L-alanyl)-3-phenoxazone nitrate salt]	–	–	0.98	2.11
CC[C@@]1(O)C[C@H](OC2CC(N(C)C)C(OC3CC(O)C(CC4CC(O)C(O)C(C)O4)C(C)O3)C(C)O2)c2c(cc3c(c2O)C(=O)c2c(O)ccc(O)c2C3=O)[C@H]1C(=O)OC (stereo partly shown) [Compound 265211, Rhodirubin E]	–	–	1.47	3.36
CCN1C(=O)/C(=C\Nc2ccccc2)S/C1=N\Nc1ncc(CC(=O)Nc2ccccc2C)s1 [Compound 658350, 2-(2-(2-(5-(Anilinomethylene)-3-ethyl-4-oxo-1,3-thiazolidin-2-ylidene)hydrazino)-1,3-thiazol-5-yl)-N-(2-methylphenyl) acetamide]	–	–	1.01	2.03
